The test system of assay [1] is Staphylococcus aureus ATCC29213. Briefly: Radial diffusion assay (RDA), S. aureus. The assay is classed as cell-based. To be noted: Table 1b; 10 mM Tris Hcl (pH 7.4). Here is the method:
(§1) Peptides. Peptides were from Sigma-Genosys, generated by a peptide synthesis platform (PEPscreen®, Custom Peptide Libraries, SigmaGenosys). Yield was ˜1-6 mg, and peptide length 20 amino acids. MALDI-ToF Mass Spectrometry was perfomed on these peptides. Average Crude Purity of 20mers was ˜60%. Peptides were supplied lyophilized and in a 96-well tube rack. Prior to biological testing the PEPscreen peptides were diluted in dH2O (5 mM stock), and stored at −20 C. This stock solution was used for the subsequent experiments.
(§2) Eschericia coli ATCC25922, Staphylococcus aureus ATCC29213, and the fungal isolate Candida albicans ATCC90028 were obtained from the Department of Bacteriology, Lund University Hospital.
(§3) Radial diffusion assays (RDA) were performed essentially as described earlier (Lehrer, R. I., Rosenman, M., Harwig, S. S., Jackson, R. & Eisenhauer, P. (1991) Ultrasensitive assays for endogenous antimicrobial polypeptides, J Immunol Methods. 137, 167-73). Briefly, bacteria (E. coli, S. aureus) or fungi (C. albicans) were grown to midlogarithmic phase in 10 ml of full-strength (3% w/v) trypticase soy broth (TSB) (Becton-Dickinson, Cockeysville, Md.). The microorganisms were washed once with 10 mM Tris, pH 7.4. 4×10^6 bacterial cfu or 1×10^5 fungal cfu was added to 5 ml of the underlay agarose gel, consisting of 0.03% (w/v) TSB, 1% (w/v) low-electroendoosmosistype (Low-EEO) agarose (Sigma, St Louise Mo.) and a final concentration of 0.02% (v/v) Tween 20 (Sigma). The underlay was poured into a Ø 85 mm petri dish. After agarose solidified, 4 mm-diameter wells were punched and 6 μl of test sample was added to each well. Plates were incubated at 37° C. for 3 hours to allow diffusion of the peptides. The underlay gel was then covered with 5 ml of molten overlay (6% TSB and 1% Low-EEO agarose in dH2O). Antimicrobial activity of a peptide is visualized as a clear zone around each well after 18-24 hours of incubation at 37° C. for bacteria and 28° C. for Candida albicans. Other examples of peptides that were screened and found to show an increased effect against the above mentioned microorgansism are listed below. Some of the results are found in table 1c showing the effects against C. albicans, table 1d E. coli and table 1e S. aureus.

For assay [2], the system named is Eschericia coli ATCC25922. In words: Radial diffusion assay (RDA), E. coli. The following applies: Table 1b; 10 mM Tris Hcl (pH 7.4). The class given is cell-based, Escherichia coli. The method, then: as §1, §2, §3

57 substances from patent US8227406B2, “Antimicrobial peptides” (Dermagen AB, priority 2006, dated 2012) can be followed below.

In the case of WWWKNKGKKNGKH [Peptide T33], in assay [1], the “RDA values (mm) S. aureus ATCC 29213” value is 2.20 mm. In addition, the “RDA values (mm) E. coli ATCC 25922” value in assay [2] came out at 7.95 mm.
As for KNKGKKNGKHWWW [Peptide T2], the “RDA values (mm) S. aureus ATCC 29213” value in assay [1] worked out at 4.23 mm. The “RDA values (mm) E. coli ATCC 25922” value in assay [2] is 8.90 mm.
The corresponding values for KNKGKKNWWWWW [Peptide T16] are 3.83 mm and 9.09 mm.
The corresponding values for WWWKNK [Peptide T40] are 0.00 mm and 0.00 mm.
For KKKKKKKWWW [Peptide T50] the same measures were 4.90 mm and 7.82 mm.
In the case of GKHWWW [Peptide T30], the “RDA values (mm) S. aureus ATCC 29213” value in assay [1] stood at 0.00 mm. Moreover, the “RDA values (mm) E. coli ATCC 25922” value in assay [2] turned out to be 3.05 mm.
Turning to KKKKKKWWW [Peptide T51], the “RDA values (mm) S. aureus ATCC 29213” value in assay [1] is given as 4.16 mm. In assay [2], the “RDA values (mm) E. coli ATCC 25922” value was 8.12 mm.
Regarding NKGKKNGKHWWW [Peptide T24], the “RDA values (mm) S. aureus ATCC 29213” value in assay [1] worked out at 2.41 mm. The “RDA values (mm) E. coli ATCC 25922” value in assay [2] is reported as 8.44 mm.
Consider KKWWW [Peptide T55], for which, in assay [1], the “RDA values (mm) S. aureus ATCC 29213” value is recorded as 1.01 mm. Moreover, in assay [2], the “RDA values (mm) E. coli ATCC 25922” value worked out at 2.95 mm.
For WWWKN [Peptide T41] the same measures were 0.00 mm and 0.00 mm.
As to KWWWWW [Peptide T22], in assay [1], the “RDA values (mm) S. aureus ATCC 29213” value came out at 0.00 mm. Moreover, the “RDA values (mm) E. coli ATCC 25922” value in assay [2] stood at 2.18 mm.
WWWK [Peptide T42]: the “RDA values (mm) S. aureus ATCC 29213” value in assay [1] came out at 0.00 mm. In addition, the “RDA values (mm) E. coli ATCC 25922” value in assay [2] came out at 0.00 mm.
On to KNKGKKNGKH [Peptide T1], for which the “RDA values (mm) S. aureus ATCC 29213” value in assay [1] is 0.00 mm. Further, the “RDA values (mm) E. coli ATCC 25922” value in assay [2] was found to be 2.56 mm.
In the case of KNKGKKNWWW [Peptide T5], the “RDA values (mm) S. aureus ATCC 29213” value in assay [1] was determined as 2.85 mm. The “RDA values (mm) E. coli ATCC 25922” value in assay [2] is 8.36 mm.
For KNKGKKNGKHWWWWW [Peptide T13] the same measures were 5.58 mm and 7.93 mm.
For KKNGKHWWW [Peptide T27] the same measures were 1.68 mm and 7.56 mm.
The corresponding values for DDDDDDDDDD [Peptide T59] are 0.00 mm and 0.00 mm.
For the substance KWWW [Peptide T56], in assay [1], the “RDA values (mm) S. aureus ATCC 29213” value came out at 0.75 mm. The “RDA values (mm) E. coli ATCC 25922” value in assay [2] came to 4.48 mm.
The corresponding values for KNKGKWWW [Peptide T7] are 0.00 mm and 6.84 mm.
Take KNKWWW [Peptide T9]: the “RDA values (mm) S. aureus ATCC 29213” value in assay [1] was 0.00 mm. Further, the “RDA values (mm) E. coli ATCC 25922” value in assay [2] was 2.73 mm.
Consider WWW [Peptide T12], for which, in assay [1], the “RDA values (mm) S. aureus ATCC 29213” value worked out at 0.00 mm. Moreover, in assay [2], the “RDA values (mm) E. coli ATCC 25922” value is on record as 0.00 mm.
With KNKGKKNGKWWWWW [Peptide T14], in assay [1], the “RDA values (mm) S. aureus ATCC 29213” value is on record as 5.07 mm. Also, the “RDA values (mm) E. coli ATCC 25922” value in assay [2] is recorded as 7.90 mm.
The corresponding values for NGKHWWW [Peptide T29] are 0.00 mm and 0.00 mm.
The corresponding values for KNKGKWWWWW [Peptide T18] are 1.82 mm and 8.21 mm.
For SSSSSSSSSS [Peptide T57] the same measures were 0.00 mm and 0.00 mm.
Take SSSSSSSSSSWWW [Peptide T58]: in assay [1], the “RDA values (mm) S. aureus ATCC 29213” value came to 0.00 mm. The “RDA values (mm) E. coli ATCC 25922” value in assay [2] was determined as 0.00 mm.
Regarding DDDDDDDDDDWWW [Peptide T60], in assay [1], the “RDA values (mm) S. aureus ATCC 29213” value is 0.00 mm. For the same substance, the “RDA values (mm) E. coli ATCC 25922” value in assay [2] was 0.00 mm.
Regarding KKKKWWW [Peptide T53], in assay [1], the “RDA values (mm) S. aureus ATCC 29213” value worked out at 2.85 mm. Moreover, the “RDA values (mm) E. coli ATCC 25922” value in assay [2] was found to be 8.11 mm.
On to KKKWWW [Peptide T54], for which the “RDA values (mm) S. aureus ATCC 29213” value in assay [1] turned out to be 2.02 mm. Also, the “RDA values (mm) E. coli ATCC 25922” value in assay [2] is reported as 4.93 mm.
The corresponding values for KNKWWWWW [Peptide T20] are 0.55 mm and 4.22 mm.
For the substance KKKKKKKKKKWWW [Peptide T47], the “RDA values (mm) S. aureus ATCC 29213” value in assay [1] was 4.46 mm. Moreover, in assay [2], the “RDA values (mm) E. coli ATCC 25922” value is reported as 7.48 mm.
For KNKGKKWWW [Peptide T6] the same measures were 2.79 mm and 8.16 mm.
The corresponding values for WWWKNKGKKNG [Peptide T35] are 0.00 mm and 1.57 mm.
Turning to KNWWWWW [Peptide T21], the “RDA values (mm) S. aureus ATCC 29213” value in assay [1] is 0.00 mm. Also, the “RDA values (mm) E. coli ATCC 25922” value in assay [2] was 1.70 mm.
The corresponding values for KNKGKKNGKWWW [Peptide T3] are 4.07 mm and 9.16 mm.
The corresponding values for KNKGKKNGWWWWW [Peptide T15] are 3.90 mm and 8.03 mm.
The corresponding values for KNKGWWWWW [Peptide T19] are 1.10 mm and 4.49 mm.
With KNGKHWWW [Peptide T28], the “RDA values (mm) S. aureus ATCC 29213” value in assay [1] turned out to be 0.00 mm. The “RDA values (mm) E. coli ATCC 25922” value in assay [2] is given as 4.99 mm.
For KNKGKKNGKHWWW [Peptide T23] the same measures were 3.26 mm and 8.65 mm.
For WWWKNKGKKNGK [Peptide T34] the same measures were 0.43 mm and 4.94 mm.
For the substance WWWSNSGSSNGSH [Peptide T45], in assay [1], the “RDA values (mm) S. aureus ATCC 29213” value is 0.00 mm. In addition, the “RDA values (mm) E. coli ATCC 25922” value in assay [2] is recorded as 0.00 mm.
With KNWWW [Peptide T10], the “RDA values (mm) S. aureus ATCC 29213” value in assay [1] is given as 0.00 mm. Also, the “RDA values (mm) E. coli ATCC 25922” value in assay [2] is recorded as 2.69 mm.
The corresponding values for KKKKKKKKKK [Peptide T46] are 1.32 mm and 5.94 mm.
The corresponding values for WWWKNKGKKN [Peptide T36] are 0.66 mm and 5.04 mm.
The corresponding values for KKKKKWWW [Peptide T52] are 3.43 mm and 9.01 mm.
On to KWWW [Peptide T11], for which the “RDA values (mm) S. aureus ATCC 29213” value in assay [1] was determined as 0.00 mm. Further, the “RDA values (mm) E. coli ATCC 25922” value in assay [2] was found to be 0.00 mm.
As to GKKNGKHWWW [Peptide T26], the “RDA values (mm) S. aureus ATCC 29213” value in assay [1] came to 1.76 mm. Moreover, in assay [2], the “RDA values (mm) E. coli ATCC 25922” value was 7.47 mm.
The corresponding values for KNKGKKNGKHGSGSPWWW [Peptide T61] are 1.52 mm and 8.64 mm.
Consider HWWW [Peptide T32], for which, in assay [1], the “RDA values (mm) S. aureus ATCC 29213” value is 0.00 mm. Further, the “RDA values (mm) E. coli ATCC 25922” value in assay [2] was found to be 0.00 mm.
KKKKKKKKKWWW [Peptide T48]: in assay [1], the “RDA values (mm) S. aureus ATCC 29213” value was 7.19 mm. Further, the “RDA values (mm) E. coli ATCC 25922” value in assay [2] is reported as 9.26 mm.
For WWWKNKG [Peptide T39] the same measures were 0.00 mm and 0.00 mm.
Take KNKGKKWWWWW [Peptide T17]: the “RDA values (mm) S. aureus ATCC 29213” value in assay [1] was 3.88 mm. Moreover, the “RDA values (mm) E. coli ATCC 25922” value in assay [2] is on record as 8.98 mm.
As for WWWKNKGK [Peptide T38], the “RDA values (mm) S. aureus ATCC 29213” value in assay [1] is reported as 0.00 mm. In addition, in assay [2], the “RDA values (mm) E. coli ATCC 25922” value is listed as 1.42 mm.
For KHWWW [Peptide T31], in assay [1], the “RDA values (mm) S. aureus ATCC 29213” value worked out at 0.00 mm. Further, in assay [2], the “RDA values (mm) E. coli ATCC 25922” value was 1.48 mm.
For KKKKKKKKWWW [Peptide T49] the same measures were 5.48 mm and 7.90 mm.
For KNKGWWW [Peptide T8] the same measures were 0.00 mm and 2.94 mm.
Consider SNSGSSNGSH [Peptide T43], for which the “RDA values (mm) S. aureus ATCC 29213” value in assay [1] is 0.00 mm. Further, in assay [2], the “RDA values (mm) E. coli ATCC 25922” value is recorded as 0.00 mm.
